Laboratory results taken from US20030158245A1, “Fused heterocyclic derivatives, their production and use” (priority 2000, published 2003).

What was measured:
[1] = test system: interstitial cells prepared from the bone marrow of the femur of normal rats; assay: Action to promote osteogenesis: alkaline phosphatase activity in bone marrow interstitial cells; type: cell-based, Sprague-Dawley rats; set-up: dose or concentration left out as unconfirmed; conditions: rat bone marrow interstitial cells, compound added from day 2 for 5 days; mean ± S.E. (n = 4); all **p<0.01 vs. control
Procedure: Action to Promote Osteogenesis:
The action was determined in interstitial cells prepared from the bone marrow of the femur of normal rats by using alkaline phosphatase activity as the measure for osteogenesis. In other words, interstitial cells were prepared from the bone marrow of the femur of 7-week old male Sprague-Dawley rats according to the method of Maniatopoulos et al. [Cell Tissue Research, vol. 254, p. 317 (1988)], and cultivated in α-MEM (minimum essential medium) containing dexamethasone (10^−7 M) and β-glycerophosphoric acid (10^−2 M) to facilitate formation of the calcified osteoid tissue. After one week, the primary culture cells that reached the confluence were recovered by treating with a solution containing 0.25% trypsin and 0.2% EDTA and were subcultured in culture plates at a cell density of […] (day 0 of the cultivation). […] After the cells were washed with a phosphate buffer solution, 0.2% Nonidet P-40 was added to the cells, which were homogenized and centrifuged at 3000 rpm for 10 minutes, and the supernatant was subjected to the determination of alkaline phosphatase activity according to the method of Lowry et al. [Journal of Biological Chemistry, vol. 207, p. 19 (1954)]. Student's t-test was used for the statistical treatment.

[2] = test system: Chondromodulin-I (ChM-I) mRNA; assay: Assay of Chondromodulin-I (ChM-I) mRNA by RT-PCR in ATDC5 cells; type: cell-based, mouse; conditions: 10^−6 M test compound; ATDC5 cells cultured 7 days; density of ChM-I band determined by bioimaging; no test compound added = 0
Procedure: Assay of Chondromodulin-I (ChM-I) mRNA:
ATDC5, a substrain derived from mouse teratocarcinoma cell line AT805, was used. ATDC5 cells were cultured at 37° C. for 7 days in the presence of the test compound using a 1:1 mixed medium of Dulbecco's modified Eagle's medium/Ham's F-12 medium containing 5% heat-inactivated fetal bovine serum and 20 μg/ml gentamycin under a condition of 5% carbon dioxide and 95% air. After the cultivation was completed, cells were collected, from which RNA was recovered by using an RNeasy mini kit (manufactured by Quiagen Company), followed by DNAase treatment using MessageClean Kit (manufactured by Genhunter Company) to obtain the total RNA. The amount of ChM-I mRNA in the total RNA was determined by the RT-PCR method. First, cDNA was synthesized from the RNA preparation by reverse transcription reaction using TaKaRa PCR Kit (AMV) ver. 2.1 and random 9-mers (manufactured by Takara Shuzo Co., Ltd.) according to the instruction for the kit. Next, ChM-I gene was amplified specifically by using HotStarTaq DNA polymerase (manufactured by Quiagen company). The following primers were used for the amplification of ChM-I gene: […]
The amplification reaction was carried out in a GeneAmp PCR System 2400 (manufactured by Perkin Elmer Inc.) after warming at 95° C. for 15 minutes, which was followed by 32 repeating reaction cycles of 95° C. for 20 seconds, 58° C. for 10 seconds and 72° C. for 30 seconds. The thus-obtained PCR product was separated by electrophoresis on 2% agarose gel containing ethidium bromide, and the fluorescence intensity of the DNA fragment, which appeared by ultraviolet irradiation at the location corresponding the size (212 bp) expected from the base sequence of mouse ChM-I, was determined. The activity of the test compound to enhance ChM-I expression is expressed as the density of ChM-I band as determined by bioimaging (Table 49). […]

SMILES | melting point | Alkaline phosphatase activity (A405) [1] | ChM-I expression-enhancing activity [2]
CCOC(=O)c1sc(C)c2c1CCc1cnn(CC(F)(F)F)c1-2 [Example 127, 4,5-Dihydro-8-methyl-1-(2,2,2-trifluoroethyl)-1H-thieno[3,4-g]indazole-6-carboxylic Acid Ethyl Ester] | 120 to 121 °C |  | 
CN(C(=O)c1ccccc1)c1sc(C(=O)O)c2c1-c1oncc1CC2 [Example 11, 8-[(N-Benzoyl-N-methyl)amino]-4,5-dihydrothieno[3,4-g]-1,2-benzisoxazole-6-carboxylic Acid] | 232 to 233 °C (dec.) |  | 
CCOC(=O)c1sc(C)c2c1CCc1cnn(Cc3ccccc3)c1-2 [Example 128, 1-Benzyl-4,5-dihydro-8-methyl-1H-thieno[3,4-g]indazole-6-carboxylic Acid Ethyl Ester] | 131 to 132 °C |  | 
NC(=O)c1sc(Nc2ccc(Cl)cc2)c2c1CCc1cnoc1-2 [Example 19, 8-(4-Chlorophenylamino)-4,5-dihydrothieno[3,4-g]-1,2-benzisoxazole-6-carboxamide] | 224 to 225 °C |  | 
CCOC(=O)c1sc(OC)c2c1CCc1cnn(C)c1-2 [Example 263] | 82 to 84 °C |  | 
Cn1cc2c(n1)-c1c(N(C(=O)OCc3ccccc3)c3ccccc3)sc(C(N)=O)c1CC2 [Example 22, 8-[(N-Benzyloxycarbonyl-N-phenyl)amino]-4,5-dihydro-2-methyl-2H-thieno[3,4-g]indazole-6-carboxamide] | 220 to 221 °C |  | 
CC(=O)c1sc(Oc2ccc3c(c2)OCO3)c2c1CCc1cnn(C)c1-2 [Example 251, 1-[4,5-Dihydro-8-(3,4-methylenedioxyphenoxy)-1-methyl-1H-thieno[3,4-g]indazol-6-yl]-1-ethanone] |  | 1.33 ± 0.13** | 87
NC(=O)c1sc(Nc2ccccc2)c2c1CCc1cn[nH]c1-2 [Example 29, 4,5-Dihydro-8-phenylamino-1H-thieno[3,4-g]indazole-6-carboxamide] | 233 to 234 °C |  | 
CCOC(=O)N1C2=C(CCc3csc(Oc4ccccc4)c32)CN1C [Example 143, 4,5-dihydro-2-methyl-8-phenoxy-2H-thieno[3,4-g]indazole-1-carboxylic Acid Ethyl Ester] | 89 to 90 °C |  | 
CC(C)(C)OC(=O)c1sc(Nc2ccccc2)c2c1CCc1cnoc1-2 [Example 4, 4,5-Dihydro-8-phenylaminothieno[3,4-g]-1,2-benzisoxazole-6-carboxylic Acid t-butyl Ester] | 148 to 149 °C |  | 
COc1sc(C(=O)O)c2c1-c1c(cnn1C)CC2 [Example 271] | 250 to 252 °C |  | 
CC(C)OP(=O)(/C=C/c1ccc(Oc2sc(C(N)=O)c3c2-c2nn(C)cc2CC3)cc1)OC(C)C [Example 380, 8-{4-((E)-2-diisopropoxyphosphorylvinyl)phenoxy}-4,5-dihydro-2-methyl-2H-thieno[3,4-g]indazole-6-carboxamide] | 216 to 217 °C |  | 
Cn1ncc2c1-c1c(csc1S(C)(=O)=O)CC2 [Example 490, 1-Methyl-8-methylsulfonyl-4,5-dihydro-1H-thieno[3,4-g]indazole] | 192 to 193 °C |  | 
CCCS(=O)(=O)c1sc(C(N)=O)c2c1-c1c(cnn1C)CC2 [Example 70, 4,5-Dihydro-1-methyl-8-n-propylsulfonyl-1H-thieno[3,4-g]indazole-6-carboxamide] |  | 0.25 ± 0.02** | 47
CCOC(=O)c1sc(C)c2c1CCc1cnn(C)c1-2 [Example 73, 4,5-Dihydro-1,8-dimethyl-1H-thieno[3,4-g]indazole-6-carboxylic Acid Ethyl Ester] | 118 to 119 °C |  | 
COc1sc(C(N)=O)c2c1-c1c(cnn1C)CC2 [Example 279] | 154 to 156 °C |  | 
CNC(=O)c1sc(Nc2ccccc2)c2c1CCc1cnoc1-2 [Example 33, N-Methyl-4,5-dihydro-8-(phenylamino)thieno[3,4-g]-1,2-benzisoxazole-6-carboxamide] | 193 to 194 °C |  | 
NC(=O)c1sc(N(C(=O)OCc2ccccc2)c2ccccc2)c2c1CCc1c[nH]nc1-2 [Example 21, 8-[(N-Benzyloxycarbonyl-N-phenyl)amino]-4,5-dihydro-1H-thieno[3,4-g]indazole-6-carboxamide] | 240 to 241 °C |  | 
CN(C(=O)c1ccccc1)c1sc(C(N)=O)c2c1-c1oncc1CC2 [Example 18, 8-[(N-Benzoyl-N-methyl)amino]-4,5-dihydrothieno[3,4-g]-1,2-benzisoxazole-6-carboxamide] | 197 to 198 °C |  | 
Cn1cc2c(n1)-c1c(Oc3ccc(C=O)cc3)sc(C(N)=O)c1CC2 [Example 380, 8-(4-Formylphenoxy)-4,5-dihydro-2-methyl-2H-thieno[3,4-g]indazole-6-carboxamide] | 210 to 211 °C |  | 
O=C(O)c1sc(Nc2ccc(Cl)cc2)c2c1CCc1cnoc1-2 [Example 12, 8-(4-Chlorophenylamino)-4,5-dihydrothieno[3,4-g]-1,2-benzisoxazole-6-carboxylic Acid] | 232 to 233 °C (dec.) |  | 
O=C(O)c1sc(Nc2ccccc2)c2c1CCc1cnoc1-2 [Example 13, 4,5-Dihydro-8-phenylaminothieno[3,4-g]-1,2-benzisoxazole-6-carboxylic Acid] | 211 to 212 °C (dec.) |  | 
CCCCc1sc(C(=O)OCC)c2c1-c1c(cnn1C)CC2 [Example 78, 8-n-Butyl-4,5-dihydro-1-methyl-1H-thieno[3,4-g]indazole-6-carboxylic Acid Ethyl Ester] | 80 to 81 °C |  | 
Cn1ncc2c1-c1c(Nc3ccccc3)sc(C(N)=O)c1CC2 [Example 28, 4,5-Dihydro-1-methyl-8-phenylamino-1H-thieno[3,4-g]indazole-6-carboxamide] | 140 to 141 °C |  | 
CC(C)(C)OC(=O)c1sc(Nc2ccc(Cl)cc2)c2c1CCc1cnoc1-2 [Example 3, 8-(4-Chlorophenylamino)-4,5-dihydrothieno[3,4-g]-1,2-benzisoxazole-6-carboxylic Acid t-butyl Ester] | 197 to 198 °C |  | 
O=C(O)c1sc(N(C(=O)OCc2ccccc2)c2ccccc2)c2c1CCc1c[nH]nc1-2 [Example 14, 8-[(N-Benzyloxycarbonyl-N-phenyl)amino]-4,5-dihydro-1H-thieno[3,4-g]indazole-6-carboxylic Acid] | 278 to 279 °C |  | 
CCNC(=O)c1sc(Oc2ccc3c(c2)OCO3)c2c1CCc1cnn(C)c1-2 [Example 255, N-ethyl-4,5-dihydro-8-(3,4-methylenedioxyphenoxy)-1-methyl-1H-thieno[3,4-g]indazole-6-carboxamide] |  | 1.82 ± 0.06** | 106
